In patent publication US20200131156A1, “ARYLSULFONYLPYROLECARBOXAMIDE DERIVATIVES AS Kv3 POTASSIUM CHANNEL ACTIVATORS” (H. Lundbeck A/S, priority 2018, published 2020):
Each block holds one molecule with its values, some of them ahead of it.

Target: T1, hKv3.1b (Homo sapiens, UniProt P48547)
T1 construct: expressed in transfected cells
T1 sequence (P48547 1-585 isoform P48547-2): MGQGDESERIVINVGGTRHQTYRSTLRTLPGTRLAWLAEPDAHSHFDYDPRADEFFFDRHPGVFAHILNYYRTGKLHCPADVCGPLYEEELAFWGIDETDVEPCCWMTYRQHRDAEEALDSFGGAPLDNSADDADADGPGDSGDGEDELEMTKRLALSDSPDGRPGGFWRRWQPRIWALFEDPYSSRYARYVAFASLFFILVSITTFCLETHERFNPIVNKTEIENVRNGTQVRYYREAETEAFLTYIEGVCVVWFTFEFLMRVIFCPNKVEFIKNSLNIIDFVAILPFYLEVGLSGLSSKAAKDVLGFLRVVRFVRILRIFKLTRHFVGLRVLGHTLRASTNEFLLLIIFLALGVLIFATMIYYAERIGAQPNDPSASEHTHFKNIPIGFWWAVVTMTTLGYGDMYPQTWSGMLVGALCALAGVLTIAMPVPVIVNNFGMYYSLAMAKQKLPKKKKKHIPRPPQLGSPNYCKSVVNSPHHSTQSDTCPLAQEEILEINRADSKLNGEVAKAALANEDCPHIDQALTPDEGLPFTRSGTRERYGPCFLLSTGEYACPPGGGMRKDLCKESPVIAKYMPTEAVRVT
Assay: Automated patch clamp (QPatch-16x) on HEK-293 cells stably expressing hKv3.1b
Format: cell-based
Conditions: for ECdelta5 mV: concentration needed to shift the activation threshold 5 mV; for Threshold Shift: maximum absolute hyperpolarizing shift of activation threshold at tested concentrations 0.37-30 μM
Experimental: HEK-293 cells stably expressing hKv3.1b were used for the experiments. Cells were cultured in DMEM medium supplemented with 10% Fetal Bovine Serum, 100 ug/mL Geneticidin and 100 u/mL Penicillin/Streptomycin (all from Gibco). Cells were grown to 80-90% confluency at 37° C. and 5% CO2. On the day of the experiment the cells were detached from the tissue culture flasks by Detachin, resuspended in serum free medium containing 25 mM HEPES and transferred to the cell hotel of the QPatch. The cells were used for experiments 0-5 hours after detachment.
Patch-clamp recordings were performed using the automated recording system QPatch-16x (Sophion Bioscience, Denmark). Cells were centrifuged, SFM removed and the cells were resuspended in extracellular buffer containing (in mM): 145 NaCl, 4 KCl, 1 MgCl2, 2 CaCl2, 10 HEPES and 10 glucose (added fresh on the day of experiment); pH 7.4 adjusted with NaOH, 305 mOsm adjusted with sucrose.
Single cell whole-cell recordings were carried out using an intracellular solution containing (in mM): 120 KCl, 32.25/10 KOH/EGTA, 5.374 CaCl2, 1.75 MgCl2, 10 HEPES, 4 Na2ATP (added fresh on the day), pH 7.2 adjusted with KOH, […] adjusted with sucrose. Cell membrane potentials were held at −80 mV and currents were evoked by voltage steps (200 ms duration) from −70 mV to +10 mV (in 10 mV increments). Vehicle (0.33% DMSO) or increasing concentration of compound (I) were applied and the voltage protocol was run 3 times (resulting in 3 min cpd incubation time). Five increasing concentrations of compound (I) were applied to each cell.
Leak subtraction protocol was applied at −33% of the sweep amplitude, and serial resistance values were constantly monitored.
Any cell where serial resistance exceeded 25 MOhm, membrane resistance less than 200 MOhm or current size at −10 mV less than 200 pA was eliminated from the subsequent analysis.
Data analysis was performed using Sophion's QPatch assay software in combination with Microsoft Excel™ (Redmond, Wash., USA). Current voltage relationships were plotted from the peak current at the individual voltage steps normalized to the vehicle addition at 10 mV. The voltage threshold for channel activation was defined as 5% activation of the peak current at 10 mV in presence of vehicle. The activity of the compounds was described as the ability to shift this current voltage relationship to more hyperpolarized potentials and is given as the maximum absolute shift possible at the tested concentrations (0.37, 1.11, 3.33, 10, 30 μM). Concentration response curves were plotted from the threshold shift at the individual concentrations and were fitted excel fit model 205 sigmoidal dose-response model (fit=A+((B−A)/1+((C/x)^D)))), where A is the minimum value, B the maximum value, C the EC50 value and D the slope of the curve. The concentration needed to shift the threshold 5 mV was readout from this curve (ECdelta5 mV).

SMILES: Cc1ccc(S(=O)(=O)n2ccc(C(=O)NCc3ncc(C)cn3)c2)cc1 [Compound 1, N-[(5-methylpyrimidin-2-yl)methyl]-1-(p-tolylsulfonyl)pyrrole-3-carboxamide]
ECdelta5 mV: 1600 nM
Threshold Shift: 27 mV

SMILES: Cc1ccc(S(=O)(=O)n2ccc(C(=O)NCc3cnc(C)nc3)c2)cc1 [Compound 2, N-[(2-methylpyrimidin-5-yl)methyl]-1-(p-tolylsulfonyl)pyrrole-3-carboxamide]
ECdelta5 mV: 750 nM
Threshold Shift: 40 mV

SMILES: Cc1ccc(S(=O)(=O)n2ccc(C(=O)NCc3ccc(C)nn3)c2)cc1 [Compound 3, N-[(6-methylpyridazin-3-yl)methyl]-1-(p-tolylsulfonyl)pyrrole-3-carboxamide]
ECdelta5 mV: 1100 nM
Threshold Shift: 25 mV

SMILES: Cc1cnc(CNC(=O)c2ccn(S(=O)(=O)c3ccccc3F)c2)cn1 [Compound 4, 1-(2-fluorophenyl)sulfonyl-N-[(5-methylpyrazin-2-yl)methyl]pyrrole-3-carboxamide]
ECdelta5 mV: 3100 nM
Threshold Shift: 17 mV

SMILES: Cc1cnc(CNC(=O)c2ccn(S(=O)(=O)c3cccc(F)c3)c2)cn1 [Compound 5, 1-(3-fluorophenyl)sulfonyl-N-[(5-methylpyrazin-2-yl)methyl]pyrrole-3-carboxamide]
ECdelta5 mV: 7800 nM
Threshold Shift: 10 mV

SMILES: Cc1cnc(CNC(=O)c2ccn(S(=O)(=O)c3ccc(F)cc3)c2)cn1 [Compound 6, 1-(4-fluorophenyl)sulfonyl-N-[(5-methylpyrazin-2-yl)methyl]pyrrole-3-carboxamide]
ECdelta5 mV: 2300 nM
Threshold Shift: 24 mV

SMILES: COc1ccc(S(=O)(=O)n2ccc(C(=O)NCc3cnc(C)cn3)c2)cc1 [Compound 7, 1-(4-methoxyphenyl)sulfonyl-N-[(5-methylpyrazin-2-yl)methyl]pyrrole-3-carboxamide]
ECdelta5 mV: 1300 nM
Threshold Shift: 33 mV

SMILES: Cc1ccc(S(=O)(=O)n2cc(C)c(C(=O)NCc3cnc(C)cn3)c2)cc1 [Compound 8, 4-methyl-N-[(5-methylpyrazin-2-yl)methyl]-1-(p-tolylsulfonyl)pyrrole-3-carboxamide]
ECdelta5 mV: 4000 nM
Threshold Shift: 12 mV

SMILES: COc1cccnc1CNC(=O)c1ccn(S(=O)(=O)c2ccc(C)cc2)c1 [Compound 10, N-[(3-methoxy-2-pyridyl)methyl]-1-(p-tolylsulfonyl)pyrrole-3-carboxamide]
ECdelta5 mV: 3600 nM
Threshold Shift: 10 mV

SMILES: Cc1ccc(S(=O)(=O)n2ccc(C(=O)NCc3ncccc3F)c2)cc1 [Compound 11, N-[(3-fluoro-2-pyridyl)methyl]-1-(p-tolylsulfonyl) pyrrole-3-carboxamide]
ECdelta5 mV: 1300 nM
Threshold Shift: 16 mV

SMILES: Cc1ccc(S(=O)(=O)n2ccc(C(=O)NCc3ccc(F)cn3)c2)cc1 [Compound 13, N-[(5-fluoro-2-pyridyl)methyl]-1-(p-tolylsulfonyl) pyrrole-3-carboxamide]
ECdelta5 mV: 1700 nM
Threshold Shift: 13 mV

SMILES: Cc1ccc(S(=O)(=O)n2ccc(C(=O)NCc3cccnc3)c2)cc1 [Compound 14, 1-(p-tolylsulfonyl)-N-(3-pyridylmethyl) pyrrole-3-carboxamide]
ECdelta5 mV: 1500 nM
Threshold Shift: 23 mV

SMILES: COc1ccc(CNC(=O)c2ccn(S(=O)(=O)c3ccc(C)cc3)c2)nc1 [Compound 18, N-[(5-methoxy-2-pyridyl)methyl]-1-(p-tolylsulfonyl) pyrrole-3-carboxamide]
ECdelta5 mV: 3500 nM
Threshold Shift: 10 mV

SMILES: Cc1ccc(S(=O)(=O)n2ccc(C(=O)NCc3cnc4nccn4c3)c2)cc1 [Compound 24, N-(imidazo[1,2-a]pyrimidin-6-ylmethyl)-1-(p-tolylsulfonyl)pyrrole-3-carboxamide]
ECdelta5 mV: 3200 nM
Threshold Shift: 24 mV

SMILES: Cc1cnc(CNC(=O)c2ccn(S(=O)(=O)c3ccccc3C)c2)cn1 [Compound 28, N-[(5-methylpyrazin-2-yl)methyl]-1-(o-tolylsulfonyl) pyrrole-3-carboxamide]
ECdelta5 mV: 1500 nM
Threshold Shift: 27 mV

SMILES: Cc1cccc(S(=O)(=O)n2ccc(C(=O)NCc3cnc(C)cn3)c2)c1 [Compound 30, N-[(5-methylpyrazin-2-yl)methyl]-1-(m-tolylsulfonyl)pyrrole-3-carboxamide]
ECdelta5 mV: 2500 nM
Threshold Shift: 17 mV

Other lines, results leading:

ECdelta5 mV: 2400 nM
Threshold Shift: 15 mV
SMILES: Cc1ccc(S(=O)(=O)n2ccc(C(=O)NCc3ccccn3)c2)cc1 [Compound 9, 1-(p-tolylsulfonyl)-N-(2-pyridylmethyl) pyrrole-3-carboxamide]

ECdelta5 mV: 1700 nM
Threshold Shift: 16 mV
SMILES: Cc1ccc(S(=O)(=O)n2ccc(C(=O)NCc3cc(F)ccn3)c2)cc1 [Compound 12, N-[(4-fluoro-2-pyridyl)methyl]-1-(p-tolylsulfonyl) pyrrole-3-carboxamide]

ECdelta5 mV: 1700 nM
Threshold Shift: 14 mV
SMILES: Cc1ccc(S(=O)(=O)n2ccc(C(=O)NCc3cccc(C)n3)c2)cc1 [Compound 15, N-[(6-methyl-2-pyridyl)methyl]-1-(p-tolylsulfonyl)pyrrole-3-carboxamide]

ECdelta5 mV: 3000 nM
Threshold Shift: 16 mV
SMILES: Cc1ccc(S(=O)(=O)n2ccc(C(=O)NCc3cc(C)ccn3)c2)cc1 [Compound 16, N-[(4-methyl-2-pyridyl)methyl]-1-(p-tolylsulfonyl)pyrrole-3-carboxamide]

ECdelta5 mV: 2300 nM
Threshold Shift: 16 mV
SMILES: Cc1ccc(S(=O)(=O)n2ccc(C(=O)NCc3ncccc3C)c2)cc1 [Compound 17, N-[(3-methyl-2-pyridyl)methyl]-1-(p-tolylsulfonyl)pyrrole-3-carboxamide]

ECdelta5 mV: 2100 nM
Threshold Shift: 11 mV
SMILES: COc1ccnc(CNC(=O)c2ccn(S(=O)(=O)c3ccc(C)cc3)c2)c1 [Compound 19, N-[(4-methoxy-2-pyridyl)methyl]-1-(p-tolylsulfonyl) pyrrole-3-carboxamide]

ECdelta5 mV: 1100 nM
Threshold Shift: 37 mV
SMILES: Cc1ccc(S(=O)(=O)n2ccc(C(=O)NCc3cnc(C)cn3)c2)cc1 [Compound 25, N-[(5-methylpyrazin-2-yl)methyl]-1-(p-tolylsulfonyl) pyrrole-3-carboxamide]

ECdelta5 mV: 930 nM
Threshold Shift: 22 mV
SMILES: Cc1ccc(S(=O)(=O)n2ccc(C(=O)NCc3ccc(C)nc3)c2)cc1 [Compound 26, N-[(6-methyl-3-pyridyl)methyl]-1-(p-tolylsulfonyl)pyrrole-3-carboxamide]

ECdelta5 mV: 1300 nM
Threshold Shift: 31 mV
SMILES: Cc1ccc(S(=O)(=O)n2ccc(C(=O)NCc3cnccn3)c2)cc1 [Compound 29, 1-(p-tolylsulfonyl)-N-(pyrazin-2-ylmethyl) pyrrole-3-carboxamide]
